Assay results reported in the supplement of paper PMC10883282.
Where a name gives a salt, the structure may show the parent alone. ± gives the standard deviation of the averaged measurements.

Tested on: SW982
Experiment: relative viability vs DMSO control (72 h) (fraction); higher = more viable cells
Outline: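 After seeding at densities set for 80–90% confluence in 384-well plates, sarcoma cell lines waited 24 h before 2.5 µl of serially diluted compound was added. Source plates held 10 mM down to 0.0002 mM. Plates were incubated 72 h at 37 °C with 5% CO2, with 0.1% DMSO vehicle and a 5 µM positive control, and relative viability was taken from ATPLite as percent growth averaged over up to triplicate wells, with 1 set as full and 0 as none.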

Compound	relative viability (0.00017 µM)	relative viability (0.00051 µM)	relative viability (0.00152 µM)	relative viability (0.00457 µM)	relative viability (0.01372 µM)	relative viability (0.04115 µM)	relative viability (0.1235 µM)	relative viability (0.3704 µM)	relative viability (1.111 µM)	relative viability (3.333 µM)	relative viability (10 µM)
C[C@@H]1COCCN1c1cc(-c2ccnn2C)c2ccnc(-c3ccn[nH]3)c2n1	1.04 ± 0.031	1.05 ± 0.052	1.05 ± 0.056	1.04 ± 0.015	0.989 ± 0.028	0.685 ± 0.039	0.499 ± 0.009	0.322 ± 0.011	0.1893 ± 0.0012	0.149 ± 0.002	0.142 ± 0.0075
CCN1CCN(Cc2ccc(Nc3ncc(F)c(-c4cc(F)c5nc(C)n(C(C)C)c5c4)n3)nc2)CC1 [Abemaciclib]	1.05 ± 0.036	1.06 ± 0.046	1.04 ± 0.043	1.06 ± 0.041	1.07 ± 0.035	0.987 ± 0.031	0.787 ± 0.046	0.593 ± 0.02	0.469 ± 0.013	0.302 ± 0.12	0.0803 ± 0.12
CCc1cc2c(cc1N1CCC(N3CCOCC3)CC1)C(C)(C)c1[nH]c3cc(C#N)ccc3c1C2=O [Alectinib]	1.05 ± 0.043	1.06 ± 0.035	1.058 ± 0.0041	1.06 ± 0.026	1.04 ± 0.022	1.05 ± 0.017	1.032 ± 0.0038	1.05 ± 0.022	1.07 ± 0.019	1.06 ± 0.038	1.06 ± 0.046
Cc1nc(NC(=O)N2CCC[C@H]2C(N)=O)sc1-c1ccnc(C(C)(C)C(F)(F)F)c1 [Alpelisib]	0.989 ± 0.04	0.929 ± 0.033	0.98 ± 0.021	0.95 ± 0.02	0.997 ± 0.014	0.959 ± 0.055	0.964 ± 0.031	0.927 ± 0.052	0.845 ± 0.026	0.725 ± 0.022	0.596 ± 0.026
Cn1cc(-c2cc3c(N4CCN(c5ncc([C@@](C)(N)c6ccc(F)cc6)cn5)CC4)ncnn3c2)cn1 [Avapritinib]	0.99 ± 0.026	0.956 ± 0.05	0.957 ± 0.093	0.93 ± 0.07	0.964 ± 0.061	0.962 ± 0.081	0.902 ± 0.033	0.928 ± 0.025	0.905 ± 0.044	0.894 ± 0.033	0.8071 ± 0.0062
CC(C)NC(=O)C1CCC(n2c(NC(=O)c3ccc(F)cc3)nc3ccc(CN4CCC(C(C)(C)O)CC4)cc32)CC1 (stereo not drawn) [Belizatinib]	1.09 ± 0.024	1.06 ± 0.023	1.05 ± 0.037	1.06 ± 0.03	1.06 ± 0.02	1.03 ± 0.054	0.974 ± 0.048	0.766 ± 0.045	0.383 ± 0.035	0.173 ± 0.011	0.0273 ± 0.0064
Cn1cnc2c(F)c(Nc3ccc(Br)cc3F)c(C(=O)NOCCO)cc21 [Binimetinib]	0.974 ± 0.046	1.04 ± 0.019	1.07 ± 0.018	0.981 ± 0.056	0.99 ± 0.05	0.92 ± 0.058	0.833 ± 0.043	0.831 ± 0.051	0.809 ± 0.038	0.786 ± 0.035	0.765 ± 0.042
Nc1cc(C(F)(F)F)c(-c2cc(N3CCOCC3)nc(N3CCOCC3)n2)cn1 [Buparlisib]	1 ± 0.025	1 ± 0.033	1.04 ± 0.031	1.03 ± 0.049	1.04 ± 0.011	1.02 ± 0.041	0.983 ± 0.035	0.86 ± 0.02	0.405 ± 0.033	0.146 ± 0.0066	0.0979 ± 0.0037
CNC(=O)c1ccc(-c2cnc3ncc(Cc4ccc5ncccc5c4)n3n2)cc1F [Capmatinib]	1.04 ± 0.023	1.07 ± 0.045	1.07 ± 0.076	1.042 ± 0.0035	1.06 ± 0.067	1.03 ± 0.025	1.04 ± 0.028	1.06 ± 0.045	1.07 ± 0.06	1.06 ± 0.057	1.02 ± 0.024
COc1cc2c(Oc3ccc4[nH]c(C)cc4c3F)ncnc2cc1OCCCN1CCCC1 [Cediranib]	1.04 ± 0.034	1.058 ± 0.007	1.06 ± 0.044	1.06 ± 0.027	1.06 ± 0.031	1.04 ± 0.013	1.06 ± 0.029	0.967 ± 0.07	0.914 ± 0.077	0.959 ± 0.012	0.961 ± 0.01
COc1c(OCCCN2CCOCC2)ccc2c1N=C(NC(=O)c1cnc(N)nc1)N1CCN=C21 [Copanlisib]	1.04 ± 0.024	1.02 ± 0.022	1.04 ± 0.043	0.881 ± 0.016	0.797 ± 0.032	0.704 ± 0.029	0.529 ± 0.01	0.391 ± 0.019	0.213 ± 0.011	0.177 ± 0.0066	0.177 ± 0.0061
CN1CCN(c2ccc3nc(-c4c(N)c5c(F)cccc5[nH]c4=O)[nH]c3c2)CC1 [Dovitinib]	1.02 ± 0.018	1.03 ± 0.041	1.01 ± 0.015	0.98 ± 0.027	1.01 ± 0.059	1.01 ± 0.059	0.94 ± 0.036	0.793 ± 0.012	0.483 ± 0.015	0.237 ± 0.022	0.0627 ± 0.033
COc1cccc2c1C(=O)c1c(O)c3c(c(O)c1C2=O)C[C@@](O)(C(=O)CO)C[C@@H]3O[C@H]1C[C@H](N)[C@H](O)[C@H](C)O1 [Doxorubicin Hydrochloride]	1.05 ± 0.0095	1.05 ± 0.057	1.07 ± 0.025	1.04 ± 0.035	0.796 ± 0.022	0.457 ± 0.025	0.326 ± 0.019	0.1607 ± 0.0012	0.127 ± 0.0062	0.165 ± 0.005	0.139 ± 0.0092
Cc1cnc(Nc2ccc(OCCN3CCCC3)cc2)nc1Nc1cccc(S(=O)(=O)NC(C)(C)C)c1 [Fedratinib]	1.03 ± 0.012	1.03 ± 0.033	1.07 ± 0.021	1.07 ± 0.016	1.088 ± 0.0018	1.06 ± 0.024	0.846 ± 0.052	0.394 ± 0.013	0.161 ± 0.0068	0.0074 ± 0.0013	0.00487 ± 0.00038
C=CC(=O)N1CCC[C@@H](n2nc(-c3ccc(Oc4ccccc4)cc3)c3c(N)ncnc32)C1 [Ibrutinib]	1.02 ± 0.016	1.06 ± 0.039	1.07 ± 0.011	1.05 ± 0.035	1.03 ± 0.033	1.05 ± 0.02	1.05 ± 0.035	1.06 ± 0.051	1.08 ± 0.036	1.04 ± 0.027	0.845 ± 0.044
CC[C@H](Nc1ncnc2[nH]cnc12)c1nc2cccc(F)c2c(=O)n1-c1ccccc1 [Idelalisib]	1.06 ± 0.033	1.06 ± 0.039	1.05 ± 0.039	1.07 ± 0.027	1.07 ± 0.055	1.08 ± 0.033	1.07 ± 0.04	1.067 ± 0.0099	1 ± 0.029	0.948 ± 0.074	0.778 ± 0.011
O=C(Cc1ccc(-c2ccc(OCCN3CCOCC3)cc2)cn1)NCc1ccccc1 [KX2-391]	1.01 ± 0.037	1.07 ± 0.021	1.06 ± 0.04	1.06 ± 0.013	1.037 ± 0.0061	0.661 ± 0.02	0.299 ± 0.019	0.269 ± 0.017	0.265 ± 0.023	0.2804 ± 0.00064	0.278 ± 0.0036
O=C(Nc1cnn2ccc(N3CCC[C@@H]3c3cc(F)ccc3F)nc12)N1CC[C@H](O)C1 [Larotrectinib]	1.02 ± 0.015	1 ± 0.022	1.01 ± 0.036	1.07 ± 0.026	1.07 ± 0.031	1.058 ± 0.0089	1.05 ± 0.025	1.02 ± 0.019	1.05 ± 0.027	1.05 ± 0.032	1.01 ± 0.02
Cc1ccc(F)c(NC(=O)Nc2ccc(-c3cccc4[nH]nc(N)c34)cc2)c1 [Linifanib]	1.03 ± 0.027	1.08 ± 0.024	1.05 ± 0.035	1.07 ± 0.032	1.03 ± 0.021	1.06 ± 0.043	1.06 ± 0.019	1.08 ± 0.04	1.1 ± 0.036	1.12 ± 0.015	1.12 ± 0.04
C[C@]1(O)C[C@@H](c2nc(-c3ccc4ccc(-c5ccccc5)nc4c3)c3c(N)nccn32)C1 [Linsitinib]	1.01 ± 0.028	1.04 ± 0.026	1.03 ± 0.028	1.05 ± 0.031	1.05 ± 0.028	1.02 ± 0.041	0.918 ± 0.041	0.875 ± 0.035	0.824 ± 0.045	0.79 ± 0.035	0.583 ± 0.021
Cc1ccc(NC(=O)c2ccc(CN3CCN(C)CC3)cc2)cc1Nc1nc(-c2cccnc2)cs1 [Masitinib]	0.965 ± 0.027	0.996 ± 0.01	0.989 ± 0.015	0.983 ± 0.02	0.97 ± 0.026	0.961 ± 0.033	0.923 ± 0.025	0.89 ± 0.027	0.784 ± 0.045	0.513 ± 0.03	0.0613 ± 0.0081
CC1(C)CNc2cc(NC(=O)c3cccnc3NCc3ccncc3)ccc21 [Motesanib]	0.9792 ± 0.0014	0.972 ± 0.029	0.964 ± 0.039	0.964 ± 0.032	0.954 ± 0.013	0.933 ± 0.046	0.978 ± 0.042	0.965 ± 0.013	0.969 ± 0.033	0.9654 ± 0.0093	0.908 ± 0.086
CC(C)N1CCN(Cc2cnc(-c3cc(-c4cccc5[nH]ccc45)cc4[nH]ncc34)o2)CC1 [Nemiralisib]	0.946 ± 0.032	0.961 ± 0.044	0.918 ± 0.042	0.923 ± 0.038	0.954 ± 0.012	0.93 ± 0.061	0.916 ± 0.033	0.89 ± 0.056	0.805 ± 0.039	0.654 ± 0.032	0.275 ± 0.014
C=CC(=O)Nc1cccc(Oc2nc(Nc3ccc(N4CCN(C)CC4)cc3)nc3ccsc23)c1 [Olmutinib]	1.01 ± 0.024	1.01 ± 0.02	0.98 ± 0.01	1 ± 0.028	1.02 ± 0.016	1.01 ± 0.025	1 ± 0.011	0.969 ± 0.077	0.822 ± 0.065	0.663 ± 0.029	0.317 ± 0.033
CC(C)(C)c1cc(NC(=O)Nc2ccc(-c3cn4c(n3)sc3cc(OCCN5CCOCC5)ccc34)cc2)no1 [Quizartinib]	1.06 ± 0.028	1.05 ± 0.017	1.05 ± 0.03	1.05 ± 0.029	1.06 ± 0.017	1.06 ± 0.022	1.06 ± 0.027	1.04 ± 0.031	1.05 ± 0.017	1.05 ± 0.039	1.05 ± 0.039
CNC(=O)c1cc(Oc2ccc(NC(=O)Nc3ccc(Cl)c(C(F)(F)F)c3)c(F)c2)ccn1 [Regorafenib]	1.03 ± 0.017	1.09 ± 0.057	1.08 ± 0.043	1.1 ± 0.052	1.06 ± 0.032	1.08 ± 0.057	1.09 ± 0.044	1.09 ± 0.056	0.997 ± 0.037	0.8827 ± 0.0051	0.795 ± 0.0056
CO[C@H]1C[C@@H]2CC[C@@H](C)[C@@](O)(O2)C(=O)C(=O)N2CCCC[C@H]2C(=O)O[C@H]([C@H](C)C[C@@H]2CC[C@@H](OP(C)(C)=O)[C@H](OC)C2)CC(=O)[C@H](C)/C=C(\C)[C@@H](O)[C@@H](OC)C(=O)[C@H](C)C[C@H](C)/C=C/C=C/C=C/1C [Ridaforolimus]	1.05 ± 0.027	0.956 ± 0.041	0.867 ± 0.06	0.825 ± 0.066	0.755 ± 0.074	0.711 ± 0.036	0.679 ± 0.015	0.652 ± 0.028	0.652 ± 0.019	0.619 ± 0.0085	0.634 ± 0.03
COCc1c(-c2cc3cc(C)cc(OC)c3s2)c2c(N)ncnn2c1CN1CCNC(=O)C1 [Rogaratinib]	1.05 ± 0.019	1.06 ± 0.028	1.07 ± 0.058	1.06 ± 0.012	1.06 ± 0.027	1.07 ± 0.028	1.06 ± 0.065	1.06 ± 0.044	0.996 ± 0.024	0.728 ± 0.023	0.362 ± 0.0075
